Measured values as given in paper PMC8286840, “Identifying SARS-CoV-2 antiviral compounds by screening for small molecule inhibitors of Nsp3 papain-like protease” (Biochemical Journal, 2021).
Counter-ions that a name gives are not always drawn. Like-named read-outs stand apart in the source and are kept apart here. Where a SMILES comes first, the peptide text is derived from it.

Columns and labels:
[1] = target: T1, SARS-CoV-2 PLpro (nsp3 1564–1878) (Severe acute respiratory syndrome coronavirus 2, UniProt P0DTD1); experiment: biochemical; set-up: FRET-quenched peptide (Pro3) cleavage by PLpro, 10 min pre-incubation, slope over 20 min, normalised to no-compound control; settings: low concentration screen, read-out: % of control remaining
[2] = target: T1, SARS-CoV-2 PLpro (nsp3 1564–1878); experiment: biochemical; set-up: FRET-quenched peptide (Pro3) cleavage by PLpro, 10 min pre-incubation, slope over 20 min, normalised to no-compound control; settings: high concentration screen, read-out: % of control remaining

## CC[C@H](C(=O)N1CCCC[C@H]1C(=O)O[C@H](CCc1ccc(OC)c(OC)c1)c1cccc(OCC(=O)O)c1)c1cc(OC)c(OC)c(OC)c1 [AP1867]
[1]; Well no.=6982
  remaining activity at 1.25 µM: 103%
[2]; Well no.=6982
  remaining activity at 3.75 µM: 100%

## CC(C)(Sc1ccc(CCN(CCCCC2CCCCC2)C(=O)NC2CCCCC2)cc1)C(=O)O [GW7647]
[1]; Well no.=621
  remaining activity at 1.25 µM: 95.2%
[2]; Well no.=621
  remaining activity at 3.75 µM: 96.3%

## N=C(N)c1ccc(OCCCCCOc2ccc(C(=N)N)cc2)cc1 [Pentamidine]
[1]; Well no.=1766
  remaining activity at 1.25 µM: 97.3%
[2]; Well no.=1766
  remaining activity at 3.75 µM: 99.6%

## C=CCN1CCCC1CNC(=O)c1cc(S(N)(=O)=O)cc(OC)c1OC (stereo not drawn) [Veralipride]
[1]; Well no.=7715
  remaining activity at 1.25 µM: 93.1%
[2]; Well no.=7715
  remaining activity at 3.75 µM: 97.9%

## S=C(NCc1ccc2c(c1)OCO2)N1CCN(c2ncnc3c2oc2ccccc23)CC1 [MP-470]
[1]; Well no.=2745
  remaining activity at 1.25 µM: 103%
[2]; Well no.=2745
  remaining activity at 3.75 µM: 104%

## O=C1C[C@@H](c2ccc(O)c(O)c2)Oc2c1ccc(O[C@@H]1O[C@H](CO)[C@@H](O)[C@H](O)[C@H]1O)c2O [Flavanomarein]
[1]; Well no.=3805
  remaining activity at 1.25 µM: 96.3%
[2]; Well no.=3805
  remaining activity at 3.75 µM: 100%

## COc1ccc(-c2cc(=O)c3c(O)cc(O[C@@H]4O[C@H](CO[C@@H]5O[C@@H](C)[C@H](O)[C@@H](O)[C@H]5O)[C@@H](O)[C@H](O)[C@H]4O)cc3o2)cc1O [Diosmin]
[1]; Well no.=3597
  remaining activity at 1.25 µM: 95.3%
[2]; Well no.=3597
  remaining activity at 3.75 µM: 97.4%

## CC(C)[C@@H](C)/C=C/[C@@H](C)[C@H]1CC[C@H]2C3=CC=C4C[C@@H](O)CC[C@]4(C)[C@H]3CC[C@]12C [Ergosterol]
[1]; Well no.=5194
  remaining activity at 1.25 µM: 102%
[2]; Well no.=5194
  remaining activity at 3.75 µM: 101%

## C[C@@H]([C@@H](O)c1ccc(O)cc1)N1CCC(O)(c2ccccc2)CC1 [CP-101,606]
[1]; Well no.=5843
  remaining activity at 1.25 µM: 94.8%
[2]; Well no.=5843
  remaining activity at 3.75 µM: 93.1%

## NOCC(=O)O [O-(Carboxymethyl)hydroxylamine hemihydrochloride]
[1]; Well no.=15
  remaining activity at 1.25 µM: 103%
[2]; Well no.=15
  remaining activity at 3.75 µM: 102%

## C[C@H](CCC(=O)O)[C@H]1CC[C@H]2[C@@H]3CC[C@@H]4C[C@H](O)CC[C@]4(C)[C@H]3CC[C@]12C [Lithocholic acid]
[1]; Well no.=4646
  remaining activity at 1.25 µM: 95.7%
[1]; Well no.=7307
  remaining activity at 1.25 µM: 97.4%
[2]; Well no.=4646
  remaining activity at 3.75 µM: 93.6%
[2]; Well no.=7307
  remaining activity at 3.75 µM: 89.6%

## O=C(c1ccc(OCCCc2c[nH]cn2)cc1)C1CC1 [Ciproxifan (maleate)]
[1]; Well no.=7089
  remaining activity at 1.25 µM: 103%
[2]; Well no.=7089
  remaining activity at 3.75 µM: 105%

## CCc1nc(N)nc(N)c1-c1ccc(Cl)cc1 [Pyrimethamine]
[1]; Well no.=4708
  remaining activity at 1.25 µM: 102%
[2]; Well no.=4708
  remaining activity at 3.75 µM: 97.2%

## CC(C)C[C@H](N)C(=O)N[C@@H](Cc1ccccc1)C(=O)O [Leucyl-phenylalanine] (H-Leu-Phe-OH)
[1]; Well no.=6291
  remaining activity at 1.25 µM: 104%
[1]; Well no.=8754
  remaining activity at 1.25 µM: 87.2%
[2]; Well no.=6291
  remaining activity at 3.75 µM: 102%
[2]; Well no.=8754
  remaining activity at 3.75 µM: 87.4%

## COc1ncc(-c2nc3c(n2C(C)C)[C@H](c2ccc(Cl)cc2)N(c2cc(Cl)cn(C)c2=O)C3=O)c(OC)n1 [Siremadlin]
[1]; Well no.=6788
  remaining activity at 1.25 µM: 97.9%
[2]; Well no.=6788
  remaining activity at 3.75 µM: 89.6%

## CCCC[C@@H](C)[C@@H](OC(=O)C[C@@H](CC(=O)O)C(=O)O)[C@H](C[C@@H](C)CCCCCC[C@@H](O)C[C@H](O)[C@H](C)N)OC(=O)C[C@@H](CC(=O)O)C(=O)O [Fumonisin B2]
[1]; Well no.=3285
  remaining activity at 1.25 µM: 95.4%
[2]; Well no.=3285
  remaining activity at 3.75 µM: 95.7%

## COc1ccc2c(c1OCc1ccccc1)C[C@@H](C(=O)O)N(C(=O)C(c1ccccc1)c1ccccc1)C2 [Olodanrigan]
[1]; Well no.=8122
  remaining activity at 1.25 µM: 100%
[2]; Well no.=8122
  remaining activity at 3.75 µM: 99.4%

## Cn1c(=O)c2[nH]cnc2n(C)c1=O [Aminophylline]
[1]; Well no.=1542
  remaining activity at 1.25 µM: 101%
[2]; Well no.=1542
  remaining activity at 3.75 µM: 103%

## O=C(O)[C@H]1CCCN1 [(R)-pyrrolidine-2-carboxylic acid]
[1]; Well no.=8700
  remaining activity at 1.25 µM: 106%
[2]; Well no.=8700
  remaining activity at 3.75 µM: 101%

## COc1ccc(CCNC[C@@H](O)c2ccc(O)cc2)cc1OC [R(-)-Denopamine]
[1]; Well no.=1498
  remaining activity at 1.25 µM: 103%
[2]; Well no.=1498
  remaining activity at 3.75 µM: 100%

## CN(C)CCCn1cc(C2=C(c3c[nH]c4ccccc34)C(=O)NC2=O)c2ccccc21 [Bisindolylmaleimide I]
[1]; Well no.=2325
  remaining activity at 1.25 µM: 97.2%
[2]; Well no.=2325
  remaining activity at 3.75 µM: 98.8%

## Cc1ccc2c(c1CCC(=O)O)CC[C@@H](NS(=O)(=O)c1ccc(Cl)cc1)C2 [Terutroban]
[1]; Well no.=7149
  remaining activity at 1.25 µM: 93.3%
[2]; Well no.=7149
  remaining activity at 3.75 µM: 94.2%

## Nc1ccc(S(=O)(=O)NC(=O)c2ccccc2)cc1 [Sulfabenzamide]
[1]; Well no.=7306
  remaining activity at 1.25 µM: 103%
[2]; Well no.=7306
  remaining activity at 3.75 µM: 102%

## COC[C@@]12CC[C@H](OC)[C@@]34[C@@H]5C[C@@]6(O)[C@H](OC(=O)c7ccccc7)[C@@H]5[C@@](OC(C)=O)([C@@H]([C@H](OC)[C@H]13)[C@H]4N(C)C2)[C@@H](O)[C@@H]6OC [Hypaconitine]
[1]; Well no.=6450
  remaining activity at 1.25 µM: 88.9%
[2]; Well no.=6450
  remaining activity at 3.75 µM: 87.8%

## C[C@@H]1CN(C(=O)Nc2ccc(-c3nc(N4CCOCC4)c4cnn(CCCCCCC(=O)NO)c4n3)cc2)CCO1 [HDACs/mTOR Inhibitor 1]
[1]; Well no.=6964
  remaining activity at 1.25 µM: 96.4%
[2]; Well no.=6964
  remaining activity at 3.75 µM: 93.8%

## COc1cc2c(cc1OC)[C@@H]1Cc3ccc(OC)c(OC)c3CN1CC2 [Rotundine]
[1]; Well no.=4894
  remaining activity at 1.25 µM: 96.9%
[2]; Well no.=4894
  remaining activity at 3.75 µM: 94.7%

## Clc1ccc2c(c1)N=C(N1CCNCC1)c1ccccc1N2 [N-Desmethylclozapine]
[1]; Well no.=7229
  remaining activity at 1.25 µM: 100%
[2]; Well no.=7229
  remaining activity at 3.75 µM: 98.9%

## COc1c(N2C[C@@H]3CCCN[C@@H]3C2)c(F)cc2c(=O)c(C(=O)O)cn(C3CC3)c12 [Moxifloxacin HCl]
[1]; Well no.=4878
  remaining activity at 1.25 µM: 98.1%
[2]; Well no.=4878
  remaining activity at 3.75 µM: 93.6%

## CCOC(=O)c1[nH]c2cc(Cl)ccc2c1C(C(=O)NC(C)(C)C)N(C=O)Cc1ccc(Cl)cc1 (stereo not drawn) [YH239-EE]
[1]; Well no.=6392
  remaining activity at 1.25 µM: 98.6%
[2]; Well no.=6392
  remaining activity at 3.75 µM: 97.4%

## C[C@@H](CN1CC(=O)NC(=O)C1)N1CC(=O)NC(=O)C1 [Dexrazoxane HCl]
[1]; Well no.=5139
  remaining activity at 1.25 µM: 101%
[2]; Well no.=5139
  remaining activity at 3.75 µM: 104%

## CN1Cc2sccc2C(c2ccc(O)c(O)c2)C1 (stereo not drawn) [SKF 89145 hydrobromide]
[1]; Well no.=1218
  remaining activity at 1.25 µM: 92.6%
[2]; Well no.=1218
  remaining activity at 3.75 µM: 98.3%

## O=C(NCCO[N+](=O)[O-])c1cccnc1 [Nicorandil]
[1]; Well no.=1812
  remaining activity at 1.25 µM: 99%
[2]; Well no.=1812
  remaining activity at 3.75 µM: 95.8%

## COc1cc2ccc(=O)oc2cc1O [Scopoletin]
[1]; Well no.=3461
  remaining activity at 1.25 µM: 103%
[2]; Well no.=3461
  remaining activity at 3.75 µM: 102%

## CCCCOc1ccc(C(=O)CCN2CCCCC2)cc1 [Dyclonine (hydrochloride)]
[1]; Well no.=8318
  remaining activity at 1.25 µM: 95.9%
[2]; Well no.=8318
  remaining activity at 3.75 µM: 94.4%
